How the values were obtained:
[1] = DPPH antioxidant activity assay
Method: To evaluate four synthesized compounds and Trolox (as a positive control), a 1 mg/mL concentration in methanol was first made from phenyl alcohol. The prepared solution was produced in concentrations of 1, 2, 3, 5, 7, 10, 20, 30, 50, and 80 µg/mL. The DPPH reagent was then diluted in 0.002% w/v methanol and combined in a […] ratio with the previously produced working concentrations. A blank solution of 100% methanol was used. All solutions were incubated at room temperature for 30 min in a dark environment. Their absorbance values were then determined using a UV-visible spectrophotometer set at a wavelength of 517 nm. The antioxidant capacity of each chemical compound fraction and Trolox were calculated using the following formula:% inhibition = ((Abs blank − Abs Sample)/Abs Blank) × 100 where:
Abs blank: Absorbance value of the control reaction containing all reagents except the synthesized compound.
Abs sample: The absorbance value of the synthesized compound [48].

[2] = parameters: method as in PMID 35200663; conditions: cell line not given; cited from earlier work
HeLa cells = tested on: HeLa cells; parameters: method as in PMID 31200286; conditions: same cell line; read-out: IC50 against HeLa cells, positive control; cited from earlier work

## Cc1c(C)c2c(c(C)c1O)CCC(C)(C(=O)O)O2 (stereo not drawn) [Trolox, reference compound]
[1]; 1 µg/mL
  % inhibition of DPPH radical (radical scavenging): 30.5 ± 2.2%
[1]; 2 µg/mL
  % inhibition of DPPH radical (radical scavenging): 23.6 ± 1.3%
[1]; 3 µg/mL
  % inhibition of DPPH radical (radical scavenging): 61.4 ± 5.3%
[1]; 5 µg/mL
  % inhibition of DPPH radical (radical scavenging): 90.7± 11.3%
[1]; 7 µg/mL
  % inhibition of DPPH radical (radical scavenging): 95.3 ± 10.7%
[1]; 10 µg/mL
  % inhibition of DPPH radical (radical scavenging): 95.9± 9.5%
[1]; 20 µg/mL
  % inhibition of DPPH radical (radical scavenging): 96.7 ± 12.5%
[1]; 30 µg/mL
  % inhibition of DPPH radical (radical scavenging): 97.2 ± 8.5%
[1]; 50 µg/mL
  % inhibition of DPPH radical (radical scavenging): 98.1± 9.2%
[1]; 80 µg/mL
  % inhibition of DPPH radical (radical scavenging): 98.9± 11.8%

## C=C1C(=O)O[C@H]2/C=C(\C)CC/C=C(\C)CCC(=O)[C@]3(C)O[C@@H]3C[C@@H]12 [crassocolide N]
[2]
  cytotoxicity IC50: 4.7 µg/mL

## COc1cccc2c1C(=O)c1c(O)c3c(c(O)c1C2=O)C[C@@](O)(C(=O)CO)C[C@@H]3O[C@H]1C[C@H](N)[C@H](O)[C@H](C)O1 [doxorubicin]
HeLa cells
  IC50: 1100 ± 15 nM
